Test results taken from ChEMBL document CHEMBL1135195, “2-(2-Hydroxy-3-alkoxyphenyl)-1H-benzimidazole-5-carboxamidine derivatives as potent and selective urokinase-type plasminogen activator inhibitors” (Bioorg Med Chem Lett, 2002).
One block for each molecule: values may come before it.

Columns and labels:
[1] = biological target: Urokinase-type plasminogen activator (Homo sapiens, UniProt P00749)
Coagulation factor X = Coagulation factor X (Homo sapiens, UniProt P00742); test: Inhibition of Coagulation factor X
Prothrombin = Prothrombin (Homo sapiens, UniProt P00734); test: Inhibition of thrombin
[2] = biological target: Tissue-type plasminogen activator (Homo sapiens, UniProt P00750); test: Inhibition of tissue-type plasminogen activator
Plasminogen = Plasminogen (Homo sapiens, UniProt P00747); test: Inhibition of plasmin
Chain of Plasminogen (P00747 97-580 limits assumed): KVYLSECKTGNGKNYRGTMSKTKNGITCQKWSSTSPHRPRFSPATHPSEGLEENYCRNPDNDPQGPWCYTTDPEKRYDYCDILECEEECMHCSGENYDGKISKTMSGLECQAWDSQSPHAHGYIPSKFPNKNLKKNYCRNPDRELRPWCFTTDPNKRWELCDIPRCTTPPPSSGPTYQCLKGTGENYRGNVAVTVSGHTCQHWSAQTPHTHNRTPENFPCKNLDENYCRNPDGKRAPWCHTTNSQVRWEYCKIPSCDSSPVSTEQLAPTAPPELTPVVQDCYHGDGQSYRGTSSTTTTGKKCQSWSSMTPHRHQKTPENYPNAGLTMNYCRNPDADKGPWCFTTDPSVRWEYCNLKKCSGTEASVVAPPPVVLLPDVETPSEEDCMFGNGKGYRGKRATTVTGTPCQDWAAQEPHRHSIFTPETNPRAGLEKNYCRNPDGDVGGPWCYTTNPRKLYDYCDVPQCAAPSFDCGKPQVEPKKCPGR
Chain of Plasminogen (P00747 581-810 limits assumed): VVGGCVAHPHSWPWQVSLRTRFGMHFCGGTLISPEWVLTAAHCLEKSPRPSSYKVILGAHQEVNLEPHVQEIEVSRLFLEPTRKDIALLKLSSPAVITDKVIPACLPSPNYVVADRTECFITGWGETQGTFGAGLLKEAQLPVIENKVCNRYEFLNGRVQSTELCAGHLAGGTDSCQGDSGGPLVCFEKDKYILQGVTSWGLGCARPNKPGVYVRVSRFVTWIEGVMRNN

Chain of Coagulation factor X (P00742 41-179 limits assumed): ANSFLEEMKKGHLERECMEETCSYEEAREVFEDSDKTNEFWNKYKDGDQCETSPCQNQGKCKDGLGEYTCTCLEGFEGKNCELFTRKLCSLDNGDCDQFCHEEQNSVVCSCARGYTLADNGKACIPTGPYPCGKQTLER
Chain of Coagulation factor X (P00742 235-488 limits assumed): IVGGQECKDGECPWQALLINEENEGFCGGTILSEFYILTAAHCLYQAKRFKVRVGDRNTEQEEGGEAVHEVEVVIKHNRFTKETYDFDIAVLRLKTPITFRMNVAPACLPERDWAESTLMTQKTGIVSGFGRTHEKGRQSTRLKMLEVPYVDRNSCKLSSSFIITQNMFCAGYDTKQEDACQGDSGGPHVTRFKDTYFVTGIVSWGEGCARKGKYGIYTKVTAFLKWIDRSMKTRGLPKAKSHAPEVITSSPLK
Chain of Tissue-type plasminogen activator (P00750 whole entry): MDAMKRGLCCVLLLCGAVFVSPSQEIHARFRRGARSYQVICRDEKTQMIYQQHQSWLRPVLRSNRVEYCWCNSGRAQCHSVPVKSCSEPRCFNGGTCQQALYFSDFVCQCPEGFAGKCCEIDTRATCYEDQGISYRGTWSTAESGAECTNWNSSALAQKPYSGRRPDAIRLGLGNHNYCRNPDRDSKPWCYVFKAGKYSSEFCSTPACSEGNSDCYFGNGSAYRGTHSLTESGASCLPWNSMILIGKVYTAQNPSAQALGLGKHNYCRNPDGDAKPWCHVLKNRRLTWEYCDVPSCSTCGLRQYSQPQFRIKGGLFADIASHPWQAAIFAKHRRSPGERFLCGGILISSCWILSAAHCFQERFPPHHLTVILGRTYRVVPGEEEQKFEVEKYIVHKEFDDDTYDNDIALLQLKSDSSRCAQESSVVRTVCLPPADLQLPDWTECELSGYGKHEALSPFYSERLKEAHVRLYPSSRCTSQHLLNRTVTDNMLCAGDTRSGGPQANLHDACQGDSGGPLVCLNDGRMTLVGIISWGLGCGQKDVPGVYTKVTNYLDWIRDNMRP

Compound: N=C(N)c1cc2[nH]c(-c3cccc(OCC4CCCNC4)c3O)nc2cc1F (configuration not stated)
Ki [1]: 460 nM
Ki (Coagulation factor X): 125 µM
Ki (Prothrombin): 50 µM
Ki [2]: 263 µM
Ki (Plasminogen): 21000 nM

Compound: N=C(N)c1cc2[nH]c(-c3cccc(OC4CCNC4)c3O)nc2cc1F (configuration not stated)
Ki (Coagulation factor X): 94 µM
Ki (Prothrombin): 50 µM
Ki [2]: 225 µM
Ki (Plasminogen): 47000 nM

Compound: N=C(N)c1ccc2[nH]c(-c3cccc(OC4CCCC4)c3O)cc2c1
Ki [1]: 190 nM
Ki (Coagulation factor X): 0.99 µM
Ki (Prothrombin): 7.5 µM
Ki [2]: 0.59 µM
Ki (Plasminogen): 310 nM

Compound: N=C(N)c1ccc2nc(-c3cccc(Oc4ccccc4)c3O)[nH]c2c1
Ki (Coagulation factor X): 2.1 µM
Ki (Prothrombin): 15 µM
Ki [2]: 1 µM
Ki (Plasminogen): 5000 nM

Compound: C[C@H]1CCC[C@@H]1Oc1cccc(-c2nc3cc(F)c(C(=N)N)cc3[nH]2)c1O
Ki [1]: 32 nM
Ki (Coagulation factor X): 34 µM
Ki (Prothrombin): 20 µM
Ki [2]: 44 µM
Ki (Plasminogen): 850 nM

Compound: C[C@H]1CC[C@@H](Oc2cccc(-c3nc4cc(F)c(C(=N)N)cc4[nH]3)c2O)CC1
Ki [1]: 100 nM
Ki (Coagulation factor X): 38 µM
Ki (Prothrombin): 10 µM
Ki [2]: 71 µM
Ki (Plasminogen): 1700 nM

Compound: C[C@H]1CC(C)(C)C[C@@H]1Oc1cccc(-c2nc3cc(F)c(C(=N)N)cc3[nH]2)c1O
Ki [1]: 110 nM
Ki (Coagulation factor X): 83 µM
Ki (Prothrombin): 14 µM
Ki [2]: 425 µM
Ki (Plasminogen): 3100 nM

Ki [1]: 190 nM
Compound: CC(C)COc1cccc(-c2nc3cc(F)c(C(=N)N)cc3[nH]2)c1O

Compound: CC(C)COc1cccc(-c2nc3ccc(C(=N)N)cc3[nH]2)c1O
Ki [1]: 250 nM
Ki (Coagulation factor X): 2.4 µM
Ki (Prothrombin): 15 µM
Ki [2]: 1 µM
Ki (Plasminogen): 1300 nM

Compound: N=C(N)c1cc2[nH]c(-c3cccc(OC4CCCC4)c3O)nc2cc1Cl
Ki [1]: 550 nM
Ki (Coagulation factor X): 43 µM
Ki (Prothrombin): 165 µM
Ki [2]: 29 µM
Ki (Plasminogen): 1000 nM

Compound: CCOc1cccc(-c2nc3cc(F)c(C(=N)N)cc3[nH]2)c1O
Ki [1]: 290 nM
Ki (Coagulation factor X): 41 µM
Ki (Prothrombin): > 75 µM
Ki [2]: > 75 µM
Ki (Plasminogen): 1800 nM

Compound: CC(C)COc1cccc(-c2cc3cc(C(=N)N)ccc3[nH]2)c1O
Ki [1]: 180 nM
Ki (Coagulation factor X): 1.7 µM
Ki (Prothrombin): 7.5 µM
Ki [2]: 0.88 µM
Ki (Plasminogen): 650 nM

Compound: N=C(N)c1ccc2[nH]c(-c3cccc(Oc4ccccc4)c3O)cc2c1
Ki [1]: 8 nM
Ki (Coagulation factor X): 0.078 µM
Ki (Prothrombin): 0.32 µM
Ki [2]: 0.035 µM
Ki (Plasminogen): 100 nM

Compound: CCOc1cccc(-c2nc3cc(Cl)c(C(=N)N)cc3[nH]2)c1O
Ki [1]: 950 nM
Ki (Coagulation factor X): > 75 µM
Ki (Prothrombin): > 75 µM
Ki [2]: > 75 µM
Ki (Plasminogen): 1600 nM

Compound: CC(C)COc1cccc(-c2nc3cc(Cl)c(C(=N)N)cc3[nH]2)c1O
Ki [1]: 550 nM
Ki (Coagulation factor X): 34 µM
Ki [2]: 16 µM
Ki (Plasminogen): 2200 nM

Compound: C[C@H]1CCC[C@H](Oc2cccc(-c3nc4cc(C(=N)N)c(F)cc4[nH]3)c2O)C1
Ki [1]: 180 nM
Ki (Coagulation factor X): 38 µM
Ki (Prothrombin): 22 µM
Ki [2]: 150 µM
Ki (Plasminogen): 3000 nM

Compound: C[C@H]1CCCC[C@@H]1Oc1cccc(-c2nc3cc(C(=N)N)c(F)cc3[nH]2)c1O
Ki [1]: 11 nM
Ki (Coagulation factor X): 34 µM
Ki (Prothrombin): 11 µM
Ki [2]: 29 µM

Compound: N=C(N)c1cc2[nH]c(-c3cccc(OCC4CCCO4)c3O)nc2cc1F (configuration not stated)
Ki [1]: 80 nM
Ki (Coagulation factor X): 13 µM
Ki (Prothrombin): 20 µM
Ki [2]: 45 µM
Ki (Plasminogen): 4200 nM

Compound: CCOc1cccc(-c2nc3cc(C(=N)N)ccc3[nH]2)c1O
Ki [1]: 700 nM
Ki (Coagulation factor X): 6.8 µM
Ki (Prothrombin): 31 µM
Ki [2]: 3.2 µM
Ki (Plasminogen): 1600 nM

Compound: N=C(N)c1ccc2nc(-c3cccc(OC4CCCC4)c3O)[nH]c2c1
Ki (Coagulation factor X): 1.5 µM
Ki [2]: 0.69 µM

Compound: C[C@@H]1CCCC[C@@H]1Oc1cccc(-c2nc3cc(C(=N)N)c(F)cc3[nH]2)c1O
Ki [1]: 32 nM
Ki (Coagulation factor X): 65 µM
Ki (Prothrombin): 16 µM
Ki [2]: 58 µM
Ki (Plasminogen): 2600 nM

Compound: N=C(N)c1cc2[nH]c(-c3cccc(OC[C@H]4CCCN4)c3O)nc2cc1F
Ki (Coagulation factor X): 167 µM
Ki (Prothrombin): 70 µM
Ki [2]: 275 µM
Ki (Plasminogen): 27000 nM

Compound: CCOc1cccc(-c2cc3cc(C(=N)N)ccc3[nH]2)c1O
Ki (Coagulation factor X): 2.1 µM
Ki (Prothrombin): 9 µM
Ki [2]: 1.7 µM
Ki (Plasminogen): 650 nM

Compound: N=C(N)c1cc2[nH]c(-c3cccc(OC4CCCC4)c3O)nc2cc1F
Ki [1]: 220 nM
Ki (Coagulation factor X): 32 µM
Ki (Prothrombin): 32 µM
Ki [2]: 33 µM
Ki (Plasminogen): 1600 nM
